These results are taken from ChEMBL document CHEMBL1201862, “PubChem BioAssay data set” (2004).

SMILES strings stand for the structures.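 Grown in 96-well plates, cells were treated for 48 hours with each compound at five concentrations. Insufficient inhibition: endpoint recorded as highest concentration tested. GI50: concentration for 50% inhibition of growth.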 Active and inactive are the calls of the source. Rule as the data show it: active = GI50 up to about 1.1 µM and inactive = higher.

Holding throughout (experiment): NCI anticancer screen, dose series, 48 h
The test system of experiment [1] is SK-MEL-28.
The subject of experiment [2] is ACHN.
Experiment [3] concerns NCI-H460.
Experiment [4] relates to Malme-3M.
Experiment [5] has as its system Hs-578T.
The test system of experiment [6] is OVCAR-5.
For experiment [7], the system named is OVCAR-8.
The test system of experiment [8] is KM12.
The test system of experiment [9] is MCF7.
In experiment [10] the test system is A549.
In experiment [11] the test system is HCT-15.
Experiment [12] has as its system SW-620.
Experiment [13] relates to K562.
Experiment [14] relates to MDA-MB-231.
Experiment [15] relates to SK-MEL-5.
Experiment [16] has as its system UACC-62.
The subject of experiment [17] is U-251.
The subject of experiment [18] is OVCAR-4.
In experiment [19] the test system is RXF 393.

In the case of `COc1ccc2c(c1)-c1[nH]c3ccc(OC)cc3c1CC2`, the GI50 in [1] was 16.4 µM (inactive); in [2] it was 19.6 µM (inactive); in [3], 16.3 µM (inactive); in [4], 15 µM (inactive); in [5] it was 13.4 µM (inactive); in experiment [6], 14.5 µM (inactive). Besides, the GI50 in [7] is 13.9 µM (inactive); in experiment [8], 4.86 µM (inactive); in experiment [9], 24.9 µM (inactive); in [10], 14.3 µM (inactive); in experiment [11], 10.6 µM; in experiment [12] it was 22.4 µM (inactive). Besides, the GI50 was 8.99 µM (inactive) in [13]; 17.3 µM (inactive) in experiment [14]; 13.1 µM (inactive) in experiment [15]; 15.1 µM (inactive) in experiment [16]; 17.3 µM (inactive) in experiment [17]; 14.9 µM (inactive) in experiment [18].
As to `CN(Cc1cnc2nc(N)nc(N)c2n1)c1ccc(C(=O)NCCCS(=O)(=O)O)cc1`, the GI50 in experiment [1], in [2], in experiment [3], in experiment [4], in experiment [5] and in experiment [6] was > 100 µM (inactive) in each case. Moreover, the GI50 in [7] was > 100 µM (inactive); in experiment [8], > 100 µM (inactive); in experiment [9], > 100 µM (inactive); in experiment [10], > 100 µM (inactive); in experiment [11], greater than 100 µM; in experiment [12], > 100 µM (inactive). In addition, the GI50 in experiment [13], in experiment [14], in [15], in [16], in [17] and in experiment [18] was > 100 µM (inactive) each time.
Regarding `CN(O)C(=O)/C=C/c1ccc(OCc2cccc(Cl)c2)cc1`, the GI50 in experiment [1] is 38.5 µM (inactive); in experiment [2], 14.5 µM (inactive); in [3], 16.5 µM (inactive); in experiment [19], 30.7 µM (inactive); in experiment [5] it was 61.7 µM (inactive); in experiment [6], 39.7 µM (inactive). Also, the GI50 in experiment [7] is 16.3 µM (inactive); in experiment [8], 17.7 µM (inactive); in [9], 48.6 µM (inactive); in experiment [10], 21.2 µM (inactive); in [11] it was 12.9 µM; in experiment [12] it was 26.9 µM (inactive). The GI50 in experiment [13] is 36.1 µM (inactive); in experiment [14] it was 43.9 µM (inactive); in experiment [15] it was 24.2 µM (inactive); in experiment [16], 15 µM (inactive); in experiment [17], 22 µM (inactive); in [18] it was 19.6 µM (inactive).
On to `O=[N+]([O-])C1=Cc2c(O)ccc(O)c2C2OC=CC12` (configuration not stated), for which the GI50 in experiment [1] is 44.8 µM (inactive); in [2] it was 14.8 µM (inactive); in experiment [3], 19.7 µM (inactive); in experiment [19], 15.2 µM (inactive); in experiment [5], 29.2 µM (inactive); in experiment [6], 23.5 µM (inactive). Also, the GI50 in experiment [7] is 21.4 µM (inactive); in experiment [8], 16.4 µM (inactive); in experiment [9], 13.6 µM (inactive); in experiment [10], 21 µM (inactive); in [11], 18.5 µM; in [12], 30 µM (inactive). Besides, the GI50 in experiment [13] is 9.44 µM (inactive); in experiment [14] it was 18.5 µM (inactive); in experiment [15], 12.4 µM (inactive); in [16] it was 6.81 µM (inactive); in experiment [17] it was 16.1 µM (inactive); in experiment [18] it was 16.4 µM (inactive).
Consider `COC(=O)c1ccc(/C=C2\Oc3cc(O)ccc3C2=O)cc1`, for which the GI50 in experiment [1] was 72.8 µM (inactive); in experiment [2] it was 31.7 µM (inactive); in experiment [3], > 100 µM (inactive); in experiment [19] it was 27.9 µM (inactive); in [5], 52.4 µM (inactive); in experiment [7] it was 61.5 µM (inactive). Besides, the GI50 is 49.3 µM (inactive) in experiment [8]; 38.5 µM (inactive) in [9]; 77.3 µM (inactive) in [10]; 53.3 µM in [11]; 78.2 µM (inactive) in [12]; 47.8 µM (inactive) in [13]. The GI50 in [14] is 65.9 µM (inactive); in experiment [15] it was 67 µM (inactive); in [16], > 100 µM (inactive); in [17], 48.8 µM (inactive); in experiment [18] it was 62.8 µM (inactive).
With `O=C1c2ccccc2C(=O)C2NC(CCCCCSSCCCCCC3=NC4C(=O)c5ccccc5C(=O)C4N3)=NC12` (configuration not stated), the GI50 in experiment [1] was > 100 µM (inactive); in [2], 10.4 µM (inactive); in experiment [3], > 100 µM (inactive); in [19], 22.3 µM (inactive); in experiment [5] it was 25.7 µM (inactive); in experiment [6], > 100 µM (inactive). In addition, the GI50 in experiment [7] was 45.2 µM (inactive); in [8], 80.9 µM (inactive); in [9], > 100 µM (inactive); in [11] it was 40.6 µM; in experiment [12], 90.8 µM (inactive); in experiment [13] it was > 100 µM (inactive). Further, the GI50 in experiment [14] is 96.2 µM (inactive); in experiment [15], 19.9 µM (inactive); in experiment [17], 17.6 µM (inactive); in experiment [18], > 100 µM (inactive).
As for `c1ccc(-c2cc(-c3cccs3)c(-c3cccs3)s2)cc1`, the GI50 was 70.5 µM (inactive) in experiment [2]; 56.8 µM (inactive) in experiment [3]; 16.6 µM (inactive) in experiment [19]; 70 µM (inactive) in experiment [5]; > 100 µM (inactive) in experiment [6]; > 100 µM (inactive) in [7]. For the same compound, the GI50 in experiment [8] is 14.9 µM (inactive); in experiment [9], 16.6 µM (inactive); in [11], 22.8 µM; in [12] it was 33.7 µM (inactive); in experiment [14] it was 29.9 µM (inactive); in experiment [15] it was 33.7 µM (inactive). The figures for the GI50 in [16], in experiment [17] and in [18] were > 100 µM (inactive), 78.7 µM (inactive) and 14.3 µM (inactive), respectively.
Turning to `CCOC(=O)C1(C(=O)OCC)CC(=O)[C@@]2(C1)OCC[C@H]1OC(=O)C[C@H]12`, the GI50 in experiment [1], in experiment [2], in [3], in experiment [4], in experiment [5] and in experiment [6] was > 100 µM (inactive) each time. Also, the GI50 is > 100 µM (inactive) in experiment [7]; > 100 µM (inactive) in experiment [8]; > 100 µM (inactive) in [9]; > 100 µM (inactive) in experiment [10]; greater than 100 µM in experiment [11]; > 100 µM (inactive) in experiment [12]. In addition, the GI50 in experiment [14], in experiment [15], in experiment [16], in experiment [17] and in experiment [18] was > 100 µM (inactive) throughout.
